In patent US20200276150A1, “PARENTERAL FORMULATIONS OF MACROLIDE ANTIBIOTICS” (Tetard, Inc., priority 2010, published 2020):
Converted amounts (≈) assume the structure as drawn. “Also recorded” adds a separate entry of the source.

Columns and labels:
[1] = Saturated solubility of CEM-101 in a range of vehicles (Example 5); type: physicochemical; details: for solubility at 72 h: thermodynamic from solid, mixed 72 hours, HPLC
Description: EXAMPLE 5. Solubility of CEM-101 in a Range of Vehicles. […] Additional CEM-101 is added to vehicles which completely solubilized the CEM-101 API within 24 hours. Samples are allowed to mix for a total of 72 hours. Once mixed, the samples are assessed visually, centrifuged and then diluted to appropriate concentration for analysis by HPLC to determine saturated solubility. Without being bound by theory, it is believed herein that the vehicles are in situ salt forming compounds when mixed with CEM-101. Studies were conducted by weighing approximately 1000 mg of each vehicle into a number of vials. A known amount of CEM-101 was then added into each vial and the resulting mixture was mixed on a vortex prior to mixing overnight on a roller mixer.

[2] = CEM-101 in 60 mM tartaric acid with and without 0.9% NaCl, concentration by HPLC (Examples 3A, 3B); type: physicochemical
Description: EXAMPLE 3A. […] On addition of NaCl, the resultant solution went clear on mixing for an hour (53.0 mg/mL by HPLC). […] EXAMPLE 3B. Compositions of CEM-101 in an Unbuffered Solution for Parenteral Administration and Studies in 0.9% NaCl solution (˜8% w/v CEM-101). Approximately 90 mg CEM-101 was dissolved in 1 mL 60 mM tartaric acid pH 2.16 and allowed to mix overnight.

[3] = IV administration to monkeys, observation for pain response (Example 10); type: in vivo, Cynomolgus monkeys (Macaca fasicularis); details: IV infusion about 90 minutes, 5, 12.5, 25 mg/kg/d
Description: EXAMPLE 10. Pharmacokinetics (PK) in monkeys following IV administration. […] The plasma level of CEM-101 and toxicokinetics at 0-24 hours is measured (venipuncture, predose, then immediately following completion of infusion at 0, 0.5, 1, 4, 8, and 24 hours). Animal body weight is also periodically measured. […] Total dose volume is 15 mL/kg, and intravenous infusion is carried out over about 90 minutes (10 mL/kg/h) via disposable indwelling catheter into one of the brachial and/or saphenous veins. Vein or vein location is changed at least every seven days. Control animals receive vehicle alone. An illustrative formulation is CEM-101 in the following vehicle comprising or consisting essentially of L(+)-tartaric acid, D-mannitol, SWFI, 1N HaOH, and optionally 1-thioglycerol, as described herein. Following dosing, a portion of the animals are immediately euthanized for necropsy evaluation. A “recovery” group is observed for an additional 28 days without dosing, then euthanized for necropsy evaluation. It is appreciated that both monkeys and dogs elicit particular sensitivity to pain, and therefore may be observed for pain response upon administration of the test articles.

[4] = IV administration to dogs, observation for pain response (Example 11); type: in vivo, Beagle dogs (Canis familiaris); details: IV infusion about 90 minutes, 5, 10, 15 mg/kg/d
Description: EXAMPLE 11. Pharmacokinetics (PK) in dogs following IV administration. […] The plasma level of CEM-101 and toxicokinetics at 0-24 hours is measured (jugular venipuncture, predose, then immediately following completion of infusion at 0, 0.5, 1, 4, 8, and 24 hours). Animal body weight is also periodically measured. […] Total dose volume is 15 mL/kg, and intravenous infusion is carried out over about 90 minutes (10 mL/kg/h) via disposable indwelling catheter into one of the cephalic and/or saphenous veins. Vein or vein location is changed at least every seven days. Control animals receive vehicle alone. An illustrative formulation is CEM-101 in the following vehicle comprising or consisting essentially of L(+)-tartaric acid, D-mannitol, SWFI, 1N HaOH, and optionally 1-thioglycerol, as described herein. Following dosing, a portion of the animals are immediately euthanized for necropsy evaluation. A “recovery” group is observed for an additional 28 days without dosing, then euthanized for necropsy evaluation. It is appreciated that both monkeys and dogs elicit particular sensitivity to pain, and therefore may be observed for pain response upon administration of the test articles.

[5] = QT effects of CEM-101 (statement, no method); details: compared to other macrolides and ketolides
[6] = Cardiac tissue levels of CEM-101 (statement, no method); details: compared to other macrolides and ketolides
[7] = tested on: azithromycin-resistant strains; test: Antibacterial activity compared with azithromycin (statement, no method); type: cell-based
[8] = Excipient compatibility by HS-MCDSC (Example 8); type: physicochemical; details: API-excipient binary pair with CEM-101, 1:1 ratio, 30-80° C.
Description: EXAMPLE 8. Determination of Compatibility of Excipients for Lyophilized Pharmaceutical Composition. Excipient compatibility is assessed using high sensitivity multi-cell differential scanning calorimetry (HS-MCDSC). The high sensitivity multi-cell differential scanning calorimeter is an analytical instrument designed to measure heat capacity and changes in heat capacity as a function of temperature.
Stability (of an individual component) is usually assessed by loading a sample of the material into a cell and measuring the heat-flow as a function of time. The instrument should rapidly detect any degradation processes occurring, and the absence of any heat responses gives confidence that the system under investigation is stable.
A similar approach can be adopted for testing binary mixtures of the active pharmaceutical ingredient (API) and excipients. […] Any unexpected power change recorded in the drug-excipient mixture indicates a possible interaction between the two components.
Calorimetric data were recorded using a high sensitivity MCDSC (CSC Model 4100 MCDSC, USA). Samples were run using API alone (ca. 50 mg), excipients alone (ca. 50 mg) and API-Excipient binary pairs (ca. 25 mg:25 mg, 1:1 ratio). Samples were weighed directly into the cells which were sealed with the metal caps provided and a rubber sealing disc to ensure an air-tight seal. Experiments were programmed as follows:
The MCDSC consists of four cells contained in a loading chamber. The cells 1, 2 and 3 were filled with samples, while the 4th cell is always left empty and run as a blank. Prior to analysis, cells 1 to 3 were run empty with no samples to record the blank results which were then subtracted from subsequent results obtained from samples analysed. Data were recorded every 10 s using the dedicated software package CpCalc. Data analysis was performed using CpCalc and Microsoft Excel.
The calorimeter records all the events occurring in each of the sample cell. The approach adopted here was to calculate the power-time data obtained for the active and excipients alone. The calculated data is then used to create an ‘expected’ theoretical trace as an average of the signals coming from both API and excipients at a mixture of 1:1 ratio.

[9] = Freeze drying, visual observation of the cakes (Example 9); type: physicochemical; details: for Visual observation of the cake: excipient at its maximum concentration in CEM-101 IV solution, frozen -25° C. 2 h, freeze dried 24 h
Description: 1 mL of CEM-101 IV solution was dispensed into in a clear glass vial, followed by the careful addition of small amounts of the excipient under investigation (either 50 or 100 mg). The solution in the vials were mixed using a vortex mixer and sonicated until a clear solution was observed. The final data is shown below, and reflects the maximum possible amount of each excipient used in the freeze dried formulations. Subsequently, all clear vials were frozen at −25° C. for 2 h. The caps were then removed and the vials were covered with a small tissue paper and placed in the freeze drier for 24 h (in the dark). The cakes were then inspected and the following visual observations detailed in the table below were made.
Based on the results above, three excipients with no interaction with the API were selected and solutions containing various ratio combinations of the API and excipient were prepared. These solutions were then frozen at −25° C., then lyophilised for 24 h, in the dark. The resultant cakes were then examined visually to determine the integrity of the plugs.

[10] = Storage of lyophilized cakes at 5° C., 25° C./60% RH and 40° C./75% RH; type: physicochemical; details: 7, 13 and 28 days
Description: Cakes were stored at 5° C., 25° C./60% RH and 40° C./75% RH. Samples were evaluated at 7, 13 and 28 days.

[11] = Solubility of each excipient in CEM-101 IV solution (Example 9); type: physicochemical; details: in 1 mL CEM-101 IV solution (50 mg/mL)
Description: EXAMPLE 9. Characterization of properties of excipients for freeze drying to prepare lyophilized pharmaceutical composition. […] The solution in the vials were mixed using a vortex mixer and sonicated until a clear solution was observed. […] The caps were then removed and the vials were covered with a small tissue paper and placed in the freeze drier for 24 h (in the dark).

[12] = HPLC assay and total impurities of formulations (Example 6); type: physicochemical
Description: Turbid samples were centrifuged prior to analysis. Total Impurities are assessed by % HPLC peak area.

Molecule | MC-DSC Results (No Interaction/Interaction) [8] | Visual observation of lyophilizate ([9]; API:Excipient Ratio 1:1) | Visual observation of lyophilizate ([9]; API:Excipient Ratio 1:2) | Visual observation of lyophilizate ([9]; API:Excipient Ratio 1:3) | Visual observation of lyophilizate ([9]; API:Excipient Ratio 1:4) | Visual observation of the cake [9] | Cake colour on storage [10] | Conc. (mg/mL), maximum possible amount of excipient giving a clear solution [11] [mg/mL] | also measured
CC[C@H]1OC(=O)[C@@](C)(F)C(=O)[C@H](C)[C@@H](O[C@@H]2O[C@H](C)C[C@H](N(C)C)[C@H]2O)[C@@](C)(OC)C[C@@H](C)C(=O)[C@H](C)[C@H]2N(CCCCn3cc(-c4cccc(N)c4)nn3)C(=O)O[C@]12C [CEM-101] |  |  |  |  |  |  |  |  | pH of resultant solution ([1]; CEM-101 in 1M Ascorbic Acid (sample 17)): 1.93; pH of resultant solution ([1]; CEM-101 in 1M Methane sulphonic Acid (sample 16)): 0.03; pH of resultant solution ([1]; CEM-101 in 1M Tartaric Acid (sample 19)): 1.27; solubility at 72 h ([1]; pH 0.03, simulated gastric fluid, vehicle 1M Methane sulphonic Acid (sample 16)): 100 mg/mL (≈ 118 mM); solubility at 72 h ([1]; pH 1.27, simulated gastric fluid, vehicle 1M Tartaric Acid (sample 19)): 100 mg/mL (≈ 118 mM); solubility at 72 h ([1]; pH 1.93, simulated gastric fluid, vehicle 1M Ascorbic Acid (sample 17)): 100 mg/mL (≈ 118 mM); solubility at 72 h ([1]; simulated gastric fluid, vehicle 1M Hydrochloric Acid (sample 15)): 100 mg/mL (≈ 118 mM); Concentration of clear solution by HPLC ([2]; 51.38 mg CEM-101 in 1 mL 60 mM tartaric acid pH 2.16, mixed overnight (5% initial formulation)): 50400 µg/mL; Concentration by HPLC after addition of 0.9% w/v NaCl ([2]; 5% NaCl formulation, clear on mixing for an hour): 53000 µg/mL; Concentration by HPLC after addition of 0.9% w/v NaCl ([2]; 8% NaCl formulation, white lump formed, mixed approx. 2 hours): 3900 µg/mL; solubility ([2]; aqueous buffer, thermodynamic from solid, approx. 90 mg CEM-101 in 1 mL 60 mM tartaric acid pH 2.16, mixed overnight (8% initial formulation), read-out: Saturated solubility by HPLC): 83 mg/mL (≈ 98.2 mM); Pain response upon IV administration [3]: no reaction by the animal was observed; Pain response upon IV administration [4]: no reaction by the animal was observed; QT effects / QT prolongation [5]: do not cause QT prologation; also recorded: low QT effects or no QT effects; Cardiac tissue levels / accumulation [6]: do not accumulate in cardiac tissue; also recorded: do not exhibit high cardiac tissue levels; Activity against azithromycin-resistant strains [7]: active; Potency relative to azithromycin ([7]; more potent than azithromycin): 8-16 times
NCC(=O)O [Glycine] | No | Good solid cake- with uniform | Good solid cake- with uniform | Good solid cake- with uniform | Good solid cake- with uniform | Good solid cake- | remained white |  | MC-DSC Results (No Interaction/Interaction) ([8]; listed as glycine): compatible
OC[C@@H](O)[C@@H](O)[C@H](O)[C@H](O)CO [Mannitol] | No | Good solid cake- with uniform | Good solid cake- with uniform | Good solid cake- with uniform | Good solid cake- with uniform | Good solid cake- | remained white | 200 | MC-DSC Results (No Interaction/Interaction) ([8]; listed as mannitol): compatible
CC[C@H]1OC(=O)[C@@](C)(F)C(=O)[C@H](C)[C@@H](O[C@@H]2O[C@H](C)C[C@H](N(C)C)[C@H]2O)[C@@](C)(OC)C[C@@H](C)C(=O)[C@H](C)[C@H]2N(CCCCn3cc(-c4cccc(N)c4)nn3)C(=O)O[C@]12C [Preformulation] |  |  |  |  |  |  |  |  | Total Impurities [12]: 2.34 % HPLC peak area
OC[C@H]1O[C@@](CO)(O[C@H]2O[C@H](CO)[C@@H](O)[C@H](O)[C@H]2O)[C@@H](O)[C@@H]1O [Sucrose] | No | Good solid cake- with uniform | Good solid cake- with uniform | Good solid cake- with uniform | Good solid cake- with uniform |  | Some cake yellowing |  | MC-DSC Results (No Interaction/Interaction) ([8]; listed as sucrose): compatible
OC[C@H]1O[C@H](O[C@H]2O[C@H](CO)[C@@H](O)[C@H](O)[C@H]2O)[C@H](O)[C@@H](O)[C@@H]1O [Trehalose] | Interaction |  |  |  |  | Poor cake-puffing |  | 700 | 
Isomalt | Interaction |  |  |  |  | Good solid cake- |  | 600 | 
